What was measured:
Adenosine A-1 receptor = molecular target: T1, Adenosine A-1 receptor (Rattus norvegicus, UniProt P25099); assay: Test for affinity for brain adenosine A-1 receptor binding sites ([3H]cyclohexyladenosine competition); details: rat brain membranes, [3H]cyclohexyladenosine 0.8 nM
T1 construct: the membranes are isolated from whole animal brains; from tissue; host or cells: whole brain membranes of male Sprague-Dawley rats
T1 sequence (P25099 1-326): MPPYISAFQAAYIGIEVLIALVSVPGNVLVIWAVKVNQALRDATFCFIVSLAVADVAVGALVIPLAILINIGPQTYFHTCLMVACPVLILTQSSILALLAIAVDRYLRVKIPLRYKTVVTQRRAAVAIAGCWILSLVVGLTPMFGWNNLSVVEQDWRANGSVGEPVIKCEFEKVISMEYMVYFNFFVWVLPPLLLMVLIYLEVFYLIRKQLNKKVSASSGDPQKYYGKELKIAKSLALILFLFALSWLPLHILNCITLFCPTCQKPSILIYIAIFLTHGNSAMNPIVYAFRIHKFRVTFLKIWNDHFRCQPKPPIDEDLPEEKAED
Excerpt: The test described below is used to determine the potency of test compounds to compete with the ligand […] for he Adenosine A-1 receptor prepared from rat brain membranes. Male Sprague-Dawley rats are sacrificed by decapitation and the membranes are isolated from whole animal brains. (See R. Goodman, M. Cooper. M. Gavish, and S. Synder, Guanine Nucleotide and Cation Regulation of the Binding of [3H]Diethylphenylxanthine to Adenosine A-1 Receptors in Brain Membrane, Molecular Pharmacology, 21, 329-335 (1982).
Membranes are homogenized (using polytron setting 7 for 10 seconds) in 25 volumes of ice-cold 50 mM Tris-HCl buffer, pH 7.7. […]
The incubation tubes, in triplicate, receive 100 µl of [3H]cyclohexyladenosine, 0.8 nM in the assay, 200 µl of test compounds at various concentrations over the range of 10^-10 M to 10^-6 M diluted with […] Tris-HCl buffer (pH 7.7), 0.2 ml of membrane suspension (8 mg wet weight) and in a final volume of 2 ml with Tris buffer. […] The filters are counted by liquid scintillation spectrometry in 8 ml of Omniflour containing 5% Protosol.
Specific binding of [3H]cyclohexyladenosine is measured as the excess over blanks taken in the presence of 10^-5 M 2-chloroadenosine. Total membrane-bound radioactivity is about 5% of that added to the test tubes. […] Protein content of the membrane suspension is determined by the method of Lowry, et al., Ibid, 265. […]

adenosine A-2 receptors = molecular target: T2, adenosine A-2 receptors (Rattus norvegicus, UniProt P30543); assay: Test for affinity for brain adenosine A-2 receptors ([3H]NECA competition, striatal membranes); type: binding; details: for Ki: rat brain striatum membranes, [3H]NECA, read-out: A-2 Receptor Ki; for A-1 Ki/A-2 Ki: ratio of A-1 Ki to A-2 Ki (selectivity)
T2 construct: from tissue; host or cells: striatal membranes of young male C-D rats (Charles River)
Excerpt: The test described below was used to determine the potency of test compounds to compete with the ligand [3H]-5'-N-ethyl-carboxamidoadenosine (NECA) for the adenosine A-2 receptors prepared from animal brain membranes. (See also R.R. Bruns, G.H. Lu, and T.A. […] Pharmacol., 29, 331-346 (1986).) Young male rats (C-D strain), obtained from Charles River, are killed by decapitation and the brains are removed. Membranes for ligand binding are isolated from rat brain striatum. The tissue is homogenized in 20 vol ice-cold 50 mM Tris-HCl buffer (pH 7.7) using a polytron (setting for 6 to 20 seconds). The homogenate is centrifuged at 50,000 x g for 10 minutes at 4°C. The pellet is again homogenized in a polytron in 20 vol of buffer, and centrifuged as before. The pellet is finally resuspended in 40 vol of 50 mM Tris-HCl (pH 7.7) per gram of original wet weight of tissue. […] Incubations are carried out at 25°C for 60 minutes. Each tube is filtered through GF/B glass fiber filters using a vacuum. The filters are rinsed two times with 5 ml of the ice-cold buffer. The membranes on the filters are transferred to scintillation vials to which 8 ml of Omnifluor with 5% Protosol is added. The filters are counted by liquid scintillation spectrometry. Specific binding of [3H]NECA is measured as the excess over blanks run in the presence of 100 µM 2-chloroadenosine. Total membrane-bound radioactivity is about 2.5% of that added to the test tubes. […] Specific binding to membranes is about 50% of the total bound. Protein content of the membrane suspension is determined by the method of O.H. Lowry, N.J. Rosebrough, A.L. Farr and R.J. Randall, Protein Measurements With Folin Phenol Reagent, J. Biol. Chem., 193, 265-275 (1951).

A-2 receptor = details: rat brain slice assay; cited from earlier work

T2 sequence (P30543 whole entry): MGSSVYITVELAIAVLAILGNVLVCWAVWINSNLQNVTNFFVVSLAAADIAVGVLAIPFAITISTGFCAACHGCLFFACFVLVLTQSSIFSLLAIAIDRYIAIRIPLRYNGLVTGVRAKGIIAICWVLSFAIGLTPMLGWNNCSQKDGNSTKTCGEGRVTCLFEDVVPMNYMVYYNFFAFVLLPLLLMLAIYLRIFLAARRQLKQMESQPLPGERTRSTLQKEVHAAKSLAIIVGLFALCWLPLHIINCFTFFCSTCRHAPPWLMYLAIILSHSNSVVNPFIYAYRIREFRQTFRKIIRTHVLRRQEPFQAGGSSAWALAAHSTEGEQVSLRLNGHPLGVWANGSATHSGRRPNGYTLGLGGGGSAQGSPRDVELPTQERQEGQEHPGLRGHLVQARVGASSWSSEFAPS

C[C@H](Cc1ccccc1)Nc1nc(N)c2ncn([C@@H]3O[C@H](CO)[C@@H](O)[C@H]3O)c2n1 [Compound 1, (R)-2-[(phenylisopropyl)amino]adenosine]
Ki (Adenosine A-1 receptor): 8.4 µM | Ki (adenosine A-2 receptors): 3.5 nM | A-1 Ki/A-2 Ki (adenosine A-2 receptors): 2400

C[C@@H](Cc1ccccc1)Nc1nc(N)c2ncn([C@@H]3O[C@H](CO)[C@@H](O)[C@H]3O)c2n1 [Compound 2, (S)-2-[(phenylisopropyl)amino]adenosine]
Ki (Adenosine A-1 receptor): 5.8 µM | Ki (adenosine A-2 receptors): 158 nM | A-1 Ki/A-2 Ki (adenosine A-2 receptors): 37

CCCn1c(=O)c2[nH]c(-c3ccc(OCC(=O)O)cc3)nc2n(CCC)c1=O [XCC, carboxylic acid congener of 8-phenyl-1,3-dipropylxanthine]
Ki (A-2 receptor): 34 ± 13 nM

Reference: patent publication EP0662975B1, “2-SUBSTITUTED ADENOSINES WITH A-2 RECEPTOR AFFINITY” (priority 1992, dated 1994)
